Assay results taken from publication PMC12416277, “Phytochemical alkaloids orchestrate immunometabolism against viral infections” (National Science Review, 2025).

Key:
IFN-β = IFN-β secretion in MEF cells (ELISA); type: cell-based
[1] = system: Ifnb1, Ifit1, Ifit2 and Ifi44 mRNA; test: Ifnb1 and ISG mRNA in mouse lungs, livers, spleens after intraperitoneal injection; type: in vivo; conditions: intraperitoneal 30, 60 mg/kg/d, 24-48 h
EMCV = type: cell-based, encephalomyocarditis virus (EMCV)
A549 cells = test: Confocal analysis of filipin-stained cholesterol distribution in A549 cells; type: cell-based

## COc1ccc2cc1Oc1ccc(cc1)C[C@H]1c3cc(c(OC)cc3CCN1C)Oc1c(OC)c(OC)cc3c1[C@H](C2)N(C)CC3 [Tet, tetrandrine]
IFN-β
  IFN-β production: induced
[1]
  Ifnb1 and ISGs mRNA levels in vivo: increased Ifnb1 and ISGs mRNA levels in vivo, particularly in lungs and livers
EMCV
  EMCV infection: effectively suppressed
A549 cells
  cholesterol distribution / lysosomal cholesterol accumulation: shifting it from the plasma membrane to endosomal and lysosomal compartments
